Experimental findings from patent publication US8518944B2, “Compounds as casein kinase inhibitors” (Pfizer Inc., priority 2009, dated 2013) are described below.

Where a name gives a salt, the structure may show the parent alone.

For orientation: IC50 means the midpoint of a concentration-inhibition curve.

One assay has as its target CK1δ (Homo sapiens, UniProt P48730). Kind of assay: CK1δ kinase assay (Kinase-Glo luminescence). Type of assay: biochemical. As to conditions: ATP 10 μM, CK1δ enzyme 2 nM, peptide substrate 42 μM, 25° C., 85 minutes; values marked * are geometric mean of 5-16 determinations; read-out: CKIδ IC50 (nM), geometric mean of 2-4 determinations. The protocol: The CK1δ kinase assay was performed in a standard buffer containing ATP at 10 μM, CK1δ enzyme at 2 nM, and the peptide substrate PLSRTLpSVASLPGL at 42 μM. The reaction was incubated at 25° C. for 85 minutes. Enzyme inhibition was performed in the presence of either 1 μL of CK1δ inhibitor, or 4% DMSO. Detection of luminescent output on a PerkinElmer EnVision plate reader (PerkinElmer, Waltham, Mass.) was performed as described for the Kinase-Glo Assay (Promega).
In general terms: Kinase-Glo reads ATP consumption through a luciferase reaction.

The target of another assay is CK1ε wild type enzyme (Homo sapiens, UniProt P49674). Kind of assay: CK1ε kinase assay (Kinase-Glo luminescence). It is filed as biochemical. The settings on record: ATP 10 μM, CK1ε wild type enzyme 2.5 nM, peptide substrate 42 μM, 25° C., 70 minutes; values marked * are geometric mean of 5-16 determinations; read-out: CKIε IC50 (nM), geometric mean of 2-4 determinations. The protocol: The CK1ε kinase assay was performed in a standard buffer containing ATP at 10 μM, CK1ε wild type enzyme at 2.5 nM, and 42 μM concentration of the peptide substrate PLSRTLpSVASLPGL (Flotow et al., 1990). The reaction was incubated at 25° C. for 70 minutes. Enzyme inhibition was measured in the presence of 1 μL of the CK1ε inhibitor, or 4% DMSO. Detection was carried out as described for the Kinase-Glo Assay (Promega). Luminescent output was measured on the PerkinElmer EnVision plate reader (PerkinElmer, Waltham, Mass.).
Sequence of CK1ε wild type enzyme (P49674 whole entry): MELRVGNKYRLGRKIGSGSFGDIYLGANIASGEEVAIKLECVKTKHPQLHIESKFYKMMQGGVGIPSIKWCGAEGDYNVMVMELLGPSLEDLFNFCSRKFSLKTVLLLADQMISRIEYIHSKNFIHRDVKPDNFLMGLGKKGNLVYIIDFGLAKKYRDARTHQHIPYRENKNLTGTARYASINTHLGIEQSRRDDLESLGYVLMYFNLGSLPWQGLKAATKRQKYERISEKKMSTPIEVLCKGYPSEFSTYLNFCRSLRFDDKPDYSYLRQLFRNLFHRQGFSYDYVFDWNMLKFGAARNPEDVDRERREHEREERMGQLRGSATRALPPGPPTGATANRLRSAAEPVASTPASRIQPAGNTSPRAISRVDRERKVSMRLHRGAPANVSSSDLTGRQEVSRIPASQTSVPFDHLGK

Sequence of CK1δ (P48730 whole entry): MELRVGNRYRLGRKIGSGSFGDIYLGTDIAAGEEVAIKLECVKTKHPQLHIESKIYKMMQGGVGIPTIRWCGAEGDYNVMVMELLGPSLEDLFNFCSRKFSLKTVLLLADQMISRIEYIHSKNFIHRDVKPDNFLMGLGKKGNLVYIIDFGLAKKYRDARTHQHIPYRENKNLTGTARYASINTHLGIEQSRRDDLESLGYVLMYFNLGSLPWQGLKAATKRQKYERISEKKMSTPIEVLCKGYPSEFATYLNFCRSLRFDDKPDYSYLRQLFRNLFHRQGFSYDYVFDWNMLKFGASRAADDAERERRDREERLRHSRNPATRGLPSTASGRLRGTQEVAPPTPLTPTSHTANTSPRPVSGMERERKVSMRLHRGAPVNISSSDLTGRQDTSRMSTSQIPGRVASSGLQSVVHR

Turning to `CCc1csc(CN2CCC(n3cnc(-c4ccc(F)cc4)c3-c3ccnc(N)n3)CC2)n1` [Example 24, 4-[1-{1-[(4-ethyl-1,3-thiazol-2-yl)methyl]piperidin-4-yl}-4-(4-fluorophenyl)-1H-imidazol-5-yl]pyrimidin-2-amine, trifluoroacetate salt], the half-maximal inhibitory concentration (IC50) was found to be 83.7 nM on CK1δ and 382 nM at CK1ε wild type enzyme.
Consider `Nc1nccc(-c2c(-c3ccc(F)cc3)ncn2C2CCN(Cc3ccncc3)C2)n1` (stereo not shown) [Example 34, 4-{4-(4-fluorophenyl)-1-[1-(pyridin-4-ylmethyl)pyrrolidin-3-yl]-1H-imidazol-5-yl}pyrimidin-2-amine], for which the IC50 on CK1δ is 76.6 nM; on CK1ε wild type enzyme, 211 nM.
As for `CNc1nccc(-c2c(-c3ccccc3)ncn2C2CCN(Cc3ccon3)CC2)n1` [Example 15, 4-{1-[1-(isoxazol-3-ylmethyl)piperidin-4-yl]-4-phenyl-1H-imidazol-5-yl}-N-methylpyrimidin-2-amine, hydrochloride salt], the IC50 on CK1δ was 18.6 nM; on CK1ε wild type enzyme, 76.1 nM.
Take `CNc1nccc(-c2c(-c3ccc(F)cc3)ncn2C2CCN(C(C)c3ccon3)CC2)n1` (stereo not shown) [Example 2, 4-{4-(4-Fluorophenyl)-1-[1-(1-isoxazol-3-ylethyl)piperidin-4-yl]-1H-imidazol-5-yl}-N-methylpyrimidin-2-amine]: the IC50 is 16.7 nM on CK1δ and 67.4 nM at CK1ε wild type enzyme.
With `COCCc1ncc(CN2CCC(n3cnc(-c4ccc(F)cc4)c3-c3ccncn3)C2)cn1` (stereo not shown) [Example 42, 5-({3-[4-(4-fluorophenyl)-5-pyrimidin-4-yl-1H-imidazol-1-yl]pyrrolidin-1-yl}methyl)-2-(2-methoxyethyl)pyrimidine, trifluoroacetate salt], the values for the IC50 on CK1δ and on CK1ε wild type enzyme were 679 nM and 1530 nM, respectively.
With `Cc1cc(CN2CCC(n3cnc(-c4ccc(F)cc4)c3-c3ccnc(N)n3)C2)no1` (stereo not shown) [Example 33, 4-[4-(4-fluorophenyl)-1-{1-[(5-methylisoxazol-3-yl)methyl]pyrrolidin-3-yl}-1H-imidazol-5-yl]pyrimidin-2-amine], the values for the IC50 on CK1δ and on CK1ε wild type enzyme were 55.1 nM and 140 nM, respectively.
Take `Nc1nccc(-c2c(-c3ccc(F)cc3)ncn2C2CCN(Cc3ccnc(C4CC4)n3)CC2)n1` [Example 28, 4-[1-{1-[(2-cyclopropylpyrimidin-4-yl)methyl]piperidin-4-yl}-4-(4-fluorophenyl)-1H-imidazol-5-yl]pyrimidin-2-amine, trifluoroacetate salt]: the half-inhibitory concentration (IC50) at CK1δ was 54.9 nM; at CK1ε wild type enzyme, 351 nM.
Consider `COc1ncccc1CN1CCC(n2cnc(-c3ccc(F)cc3)c2-c2ccnc(N)n2)CC1` [Example 26, 4-[4-(4-fluorophenyl)-1-{1-[(2-methoxypyridin-3-yl)methyl]piperidin-4-yl}-1H-imidazol-5-yl]pyrimidin-2-amine, trifluoroacetate salt], for which the IC50 at CK1δ amounted to 51.9 nM; on CK1ε wild type enzyme, 238 nM.
As for `Nc1nccc(-c2c(-c3ccc(F)cc3)ncn2C2CCN(Cc3ccon3)CC2)n1` [Example 4, 4-{4-(4-Fluorophenyl)-1-[1-(isoxazol-3-ylmethyl)piperidin-4-yl]-1H-imidazol-5-yl}pyrimidin-2-amine], the values for the IC50 on CK1δ and on CK1ε wild type enzyme were < 4.17 nM and 18.9 nM, respectively.
`COc1cc(CN2CCC(n3cnc(-c4ccc(F)cc4)c3-c3ccnc(N)n3)CC2)ccn1` [Example 25, 4-[4-(4-fluorophenyl)-1-{1-[(2-methoxypyridin-4-yl)methyl]piperidin-4-yl}-1H-imidazol-5-yl]pyrimidin-2-amine, trifluoroacetate salt]: the IC50 on CK1δ is 84.3 nM; on CK1ε wild type enzyme, 393 nM.
Turning to `Cn1nccc1CN1CCC(n2cnc(-c3ccc(F)cc3)c2-c2ccnc(N)n2)CC1` [Example 20, 4-[4-(4-fluorophenyl)-1-{1-[(1-methyl-1H-pyrazol-5-yl)methyl]piperidin-4-yl}-1H-imidazol-5-yl]pyrimidin-2-amine, trifluoroacetate salt], the IC50 at CK1δ came to 42.8 nM; on CK1ε wild type enzyme, 244 nM.
`C[C@H](c1ccon1)N1CCC(n2cnc(-c3ccc(F)cc3)c2-c2ccncn2)CC1` (single isomer, unassigned) [Example 9]: the IC50 at CK1δ worked out at 281 nM; on CK1ε wild type enzyme, 1360 nM.
As to `Cc1c(CN2CCC(n3cnc(-c4ccc(F)cc4)c3-c3ccncn3)C2)nc2ccccn12` (stereo not shown) [Example 41, 2-({3-[4-(4-fluorophenyl)-5-pyrimidin-4-yl-1H-imidazol-1-yl]pyrrolidin-1-yl}methyl)-3-methylimidazo[1,2-a]pyridine, trifluoroacetate salt], the IC50 stood at 595 nM at CK1δ and 1990 nM at CK1ε wild type enzyme.
As for `c1ccc(-c2ncn(C3CCN(Cc4ccon4)CC3)c2-c2ccncn2)cc1` [Example 16, 4-{1-[1-(isoxazol-3-ylmethyl)piperidin-4-yl]-4-phenyl-1H-imidazol-5-yl}pyrimidine], the results for the half-maximal inhibitory concentration (IC50) at CK1δ and at CK1ε wild type enzyme were 42.8 nM and 327 nM, respectively.
On the same counts, the results for `Cc1cnc(CN2CCC(n3cnc(-c4ccc(F)cc4)c3-c3ccnc(N)n3)C2)c(F)c1` (stereo not shown) [Example 31, 4-[1-{1-[(3-fluoro-5-methylpyridin-2-yl)methyl]pyrrolidin-3-yl}-4-(4-fluorophenyl)-1H-imidazol-5-yl]pyrimidin-2-amine] are 47.6 nM and 165 nM.
On to `Nc1nccc(-c2c(-c3ccccc3)ncn2C2CCN(Cc3ccon3)CC2)n1` [Example 13, 4-{1-[1-(Isoxazol-3-ylmethyl)piperidin-4-yl]-4-phenyl-1H-imidazol-5-yl}pyrimidin-2-amine, hydrochloride salt], for which the IC50 at CK1δ is 8.22 nM; at CK1ε wild type enzyme it was 40.9 nM.
Turning to `c1ccc(-c2ncn(C3CCN(Cc4ncccn4)CC3)c2-c2ccncn2)cc1` [Example 11, 2-{[4-(4-Phenyl-5-pyrimidin-4-yl-1H-imidazol-1-yl)piperidin-1-yl]methyl}pyrimidine], the IC50 was 790 nM at CK1δ and > 3660 nM at CK1ε wild type enzyme.
On the same counts, the results for `CNc1nccc(-c2c(-c3ccc(F)cc3)ncn2C2CCN(Cc3ccon3)CC2)n1` [Example 5, 4-{4-(4-Fluorophenyl)-1-[1-(isoxazol-3-ylmethyl)piperidin-4-yl]-1H-imidazol-5-yl}-N-methylpyrimidin-2-amine] are 6.86 nM and 32.3 nM.
`Nc1nccc(-c2c(-c3ccc(F)cc3)ncn2C2CCN(Cc3cncc4ccccc34)C2)n1` (stereo not shown) [Example 36, 4-{4-(4-fluorophenyl)-1-[1-(isoquinolin-4-ylmethyl)pyrrolidin-3-yl]-1H-imidazol-5-yl}pyrimidin-2-amine]: the results for the IC50 on CK1δ and on CK1ε wild type enzyme were 56.3 nM and 140 nM, respectively.
Take `Fc1ccc(-c2ncn(C3CCN(Cc4cn5ccccc5n4)C3)c2-c2ccncn2)cc1` (stereo not shown) [Example 39, 2-({3-[4-(4-fluoro-phenyl)-5-pyrimidin-4-yl-1H-imidazol-1-yl]pyrrolidin-1-yl}methyl)imidazo[1,2-a]pyridine, trifluoroacetate salt]: the IC50 at CK1δ was 211 nM; at CK1ε wild type enzyme, 644 nM.
The corresponding values for `Cc1ncc(CN2CCC(n3cnc(-c4ccc(F)cc4)c3-c3ccnc(N)n3)CC2)cn1` [Example 27, 4-[4-(4-fluorophenyl)-1-{1-[(2-methylpyrimidin-5-yl)methyl]piperidin-4-yl}-1H-imidazol-5-yl]pyrimidin-2-amine, trifluoroacetate salt] are 17.6 nM and 83.2 nM.
On the same counts, the results for `Cc1nc2ccccc2nc1CN1CCC(n2cnc(-c3ccc(F)cc3)c2-c2ccnc(N)n2)CC1` [Example 17, 4-[4-(4-fIuorophenyl)-1-{1-[(3-methylquinoxalin-2-yl)methyl]piperidin-4-yl}-1H-imidazol-5-yl]pyrimidin-2-amine, trifluoroacetate salt] are 32.1 nM and 144 nM.
With `Fc1ccc(-c2ncn(C3CCN(Cc4cnc5ccnn5c4)C3)c2-c2ccncn2)cc1` (stereo not shown) [Example 40, 6-({3-[4-(4-fluorophenyl)-5-pyrimidin-4-yl-1H-imidazol-1-yl]pyrrolidin-1-yl}methyl)pyrazolo[1,5-a]pyrimidine, trifluoroacetate salt], the half-inhibitory concentration (IC50) on CK1δ was found to be 178 nM; at CK1ε wild type enzyme, 798 nM.
With `Cc1cc(CN2CCC(n3cnc(-c4ccc(F)cc4)c3-c3ccnc(N)n3)CC2)ccn1` [Example 21, 4-[4-(4-fluorophenyl)-1-{1-[(2-methylpyridin-4-yl)methyl]piperidin-4-yl}-1H-imidazol-5-yl]pyrimidin-2-amine, trifluoroacetate salt], the IC50 was found to be 13 nM at CK1δ and 59.8 nM at CK1ε wild type enzyme.
On the same counts, the results for `Cc1ncccc1CN1CCC(n2cnc(-c3ccc(F)cc3)c2-c2ccnc(N)n2)C1` (stereo not shown) [Example 32, 4-[4-(4-fluorophenyl)-1-{1-[(2-methylpyridin-3-yl)methyl]pyrrolidin-3-yl}-1H-imidazol-5-yl]pyrimidin-2-amine] are 61.1 nM and 150 nM.
Consider `Nc1nccc(-c2c(-c3ccc(F)cc3)ncn2C2CCN(Cc3ccnc4cccnc34)C2)n1` (stereo not shown) [Example 38, 4-{4-{4-fluorophenyl)-1-[1-(1,5-naphthyridin-4-ylmethyl)pyrrolidin-3-yl]-1H-imidazol-5-yl}pyrimidin-2-amine], for which the results for the IC50 on CK1δ and at CK1ε wild type enzyme were 55.8 nM and 158 nM, respectively.
